Source: ChEMBL document CHEMBL5331131, “Discovery of Acyl-Indole Derivatives as Pan-Serotype Dengue Virus NS4B Inhibitors” (J Med Chem, 2023)
Converted amounts (≈) assume the structure as drawn.

Assays:
dengue virus type 4 = assay: Antiviral activity against DENV-4 H241 infected in african green monkey Vero cells incubated for 24 hrs measured after 3 days post infection; assay type: functional, organism-based; details: Dengue virus, H241, Vero
[1] = Clearance in CD-1 mouse at 2.5 mg/kg, iv measured for 0.12 to 24 hrs by LC-MS/MS analysis; assay type: ADME, organism-based; details: in vivo, time 0.12-24 hrs
dengue virus type 2 [2] = assay: Antiviral activity against DENV-2 16681 expressing eGFP infected in african green monkey Vero cells incubated with cells for 24 hrs followed by viral infection measured after 3 days by laser microscopic analysis; assay type: functional, organism-based; details: Dengue virus, 16681, Vero
[3] = Microsomal stability in human liver microsomes assessed as intrinsic clearance preincubated for 5 mins followed by NADPH addition measured upto 60 mins by LC-MS/MS analysis; assay type: ADME, Microsome; details: time < 65 min, read-out: CLH
[4] = Microsomal stability in rat liver microsomes assessed as intrinsic clearance preincubated for 5 mins followed by NADPH addition measured upto 60 mins by LC-MS/MS analysis; assay type: ADME, Microsome; details: time < 65 min, read-out: CLH
dengue virus type 3 = assay: Antiviral activity against DENV-3 H87 infected in african green monkey Vero cells incubated for 24 hrs measured after 3 days post infection; assay type: functional, organism-based
[5] = Clearance in Sprague-Dawley rat at 2.5 mg/kg, iv measured upto 24 hrs by LC-MS/MS analysis; assay type: ADME, organism-based; details: in vivo
[6] = Microsomal stability in mouse liver microsomes assessed as intrinsic clearance preincubated for 5 mins followed by NADPH addition measured upto 60 mins by LC-MS/MS analysis; assay type: ADME, Microsome; details: time < 65 min, read-out: CLH
[7] = Cytotoxicity against african green monkey Vero cells by ATPlite cell viability luminescence assay; assay type: toxicity, cell-based; details: chlorocebus sabaeus
dengue virus type 2 [8] = assay: Antiviral activity against DENV-2 16681 infected in african green monkey Vero cells incubated for 24 hrs measured after 3 days post infection; assay type: functional, organism-based; details: Dengue virus, 16681, Vero
dengue virus type 1 = assay: Antiviral activity against DENV-1 TC974#666 infected in african green monkey Vero cells incubated for 24 hrs measured after 3 days post infection; assay type: functional, organism-based; details: TC974#666, Vero
[9] = AUC last in Sprague-Dawley rat at 10 mg/kg, po measured upto 24 to 48 hrs by LC-MS/MS analysis; assay type: ADME, organism-based; set-up: time upper 48 hrs, dose 10 mg/kg, time lower 24 hrs, route po; details: in vivo
[10] = Half life in Sprague-Dawley rat at 2.5 mg/kg, iv measured by LC-MS/MS analysis; assay type: ADME, organism-based; details: in vivo
[11] = Cmax in Sprague-Dawley rat at 10 mg/kg, po measured upto 24 to 48 hrs by LC-MS/MS analysis; assay type: ADME, organism-based; set-up: time upper 48 hrs, dose 10 mg/kg, time lower 24 hrs, route po; details: in vivo
[12] = Kinetic solubility of the compound in aqueous buffer at pH 4 measured after 4 hrs by UPLC/UV analysis; assay type: physicochemical; details: read-out: Kinetic_solubility
[13] = Volume of distribution at steady state in Sprague-Dawley rat at 2.5 mg/kg, iv measured upto 24 hrs by LC-MS/MS analysis; assay type: ADME, organism-based; details: in vivo, read-out: Vdss
[14] = Kinetic solubility of the compound in aqueous buffer at pH 7.4 measured after 4 hrs by UPLC/UV analysis; assay type: physicochemical; details: read-out: Kinetic_solubility
[15] = Oral bioavailability in Sprague-Dawley rat at 10 mg/kg measured upto 24 to 48 hrs by LC-MS/MS analysis; assay type: ADME, organism-based; details: in vivo, time 24-48 hrs
[16] = Kinetic solubility of the compound in aqueous buffer at pH 2 measured after 4 hrs by UPLC/UV analysis; assay type: physicochemical; details: read-out: Kinetic_solubility

| SMILES | EC50 (dengue virus type 4) | EC50 (dengue virus type 2 [2]) | microsomal CLint [3] | microsomal CLint [4] | microsomal CLint [6] | CC50 [7] | EC50 (dengue virus type 2 [8]) | further results |
| --- | --- | --- | --- | --- | --- | --- | --- | --- |
| COc1cc(NC(C(=O)c2c[nH]c3ccccc23)c2ccccc2)cc(OCCO)c1 (centres undefined) | 3900 nM | 49 nM | < 8 µL/min/mg | 37 µL/min/mg | 201 µL/min/mg | 21000 nM | 32 nM | clearance [1]: 54 mL/min/kg; EC50 (dengue virus type 3): 1000 nM; clearance [5]: 34.7 mL/min/kg; EC50 (dengue virus type 1): 180 nM |
| COc1cc(NC(C(=O)c2c[nH]c3ccc(F)cc23)c2ccc(F)cc2)cc(OCCO)c1 (centres undefined) | – | 16 nM | < 8 µL/min/mg | 10 µL/min/mg | 50 µL/min/mg | 14000 nM | – | – |
| COc1cc(NC(C(=O)c2c[nH]c3cc(F)ccc23)c2ccc(F)cc2OC)cc(OCCO)c1 (centres undefined) | 870 nM | 4 nM | < 8 µL/min/mg | 30 µL/min/mg | 26 µL/min/mg | 8400 nM | 9 nM | AUC(0-t) [9]: 1110 ng·h/mL; half-life [10]: 3.2 h; Cmax [11]: 135 ng/mL; solubility kinetic at 4 h [12]: 18 µM (≈ 8.68 µg/mL); Vd [13]: 7.6 L/kg; clearance [5]: 39.2 mL/min/kg; solubility kinetic at 4 h [14]: 18 µM (≈ 8.68 µg/mL); bioavailability [15]: 26%; solubility kinetic at 4 h [16]: 69 µM (≈ 33.3 µg/mL) |
| COc1cc(NC(C(=O)c2c[nH]c3cc(Cl)ccc23)c2ccc(F)cc2OC)cc(OCCO)c1 (centres undefined) | – | 2 nM | < 8 µL/min/mg | 24 µL/min/mg | < 8 µL/min/mg | 5900 nM | – | – |
| COc1cc(NC(C(=O)c2c[nH]c3cc(F)ccc23)c2ccc(C)cc2OC)cc(OCCO)c1 (centres undefined) | 960 nM | – | – | – | – | – | 7 nM | – |
| COc1cc(NC(C(=O)c2c[nH]c3cc(F)ccc23)c2ccc(F)cc2OC(F)(F)F)cc(OCCO)c1 (centres undefined) | – | 170 nM | – | – | – | 7800 nM | – | – |
| COc1cc(NC(C(=O)c2c[nH]c3cc(F)ccc23)c2ccc(C(F)(F)F)cc2OC)cc(OCCO)c1 (centres undefined) | 770 nM | – | – | – | – | – | 3 nM | – |
| COc1cc(NC(C(=O)c2c[nH]c3c(Cl)c(OC)ccc23)c2ccc(F)cc2OC)cc(OCCO)c1 (centres undefined) | – | 1 nM | < 8 µL/min/mg | 37 µL/min/mg | 9 µL/min/mg | 8600 nM | – | – |
| COc1cc(NC(C(=O)c2c[nH]c3c(F)c(F)ccc23)c2ccc(F)cc2OC)cc(OCCO)c1 (centres undefined) | – | 3 nM | < 8 µL/min/mg | 8 µL/min/mg | 8 µL/min/mg | 6600 nM | – | – |
| COc1cc(NC(C(=O)c2c[nH]c3cc(F)ccc23)c2ccc(F)cc2OCCO)cc(OCCO)c1 (centres undefined) | – | 41 nM | – | – | – | 14000 nM | – | – |
| COc1cc(NC(C(=O)c2c[nH]c3cc(F)ccc23)c2ccc(F)cc2F)cc(OCCO)c1 (centres undefined) | – | 9 nM | – | – | – | 13000 nM | – | – |
| COc1cc(NC(C(=O)c2c[nH]c3cc(F)ccc23)c2ccc(OC(F)(F)F)cc2OC)cc(OCCO)c1 (centres undefined) | 3430 nM | – | – | – | – | – | 22 nM | – |
